Legend:
[1] = target: T1, E2F8 DNA-binding domain (Homo sapiens, UniProt A0AVK6, R156A/R314A); assay: SPR (Biacore 8K, CM5 amine coupling, steady-state […])
T1 construct: N-terminal thioredoxin-6xHis tag removed by TEV protease; E. coli Rosetta (DE3) pLysS
T1 sequence (A0AVK6 110-350 R156A/R314A): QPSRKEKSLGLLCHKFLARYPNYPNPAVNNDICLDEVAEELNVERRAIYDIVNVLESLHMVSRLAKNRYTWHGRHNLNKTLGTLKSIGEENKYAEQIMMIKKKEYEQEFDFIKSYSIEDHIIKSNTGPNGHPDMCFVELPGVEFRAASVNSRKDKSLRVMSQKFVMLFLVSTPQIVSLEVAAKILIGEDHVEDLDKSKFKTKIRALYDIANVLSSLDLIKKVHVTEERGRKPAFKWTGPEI

[2] = target: T2, E2F8 DNA-binding domain (Homo sapiens, UniProt A0AVK6); assay: as above
T2 construct: N-terminal thioredoxin-6xHis tag removed by TEV protease; E. coli Rosetta (DE3) pLysS
T2 sequence (A0AVK6 110-350): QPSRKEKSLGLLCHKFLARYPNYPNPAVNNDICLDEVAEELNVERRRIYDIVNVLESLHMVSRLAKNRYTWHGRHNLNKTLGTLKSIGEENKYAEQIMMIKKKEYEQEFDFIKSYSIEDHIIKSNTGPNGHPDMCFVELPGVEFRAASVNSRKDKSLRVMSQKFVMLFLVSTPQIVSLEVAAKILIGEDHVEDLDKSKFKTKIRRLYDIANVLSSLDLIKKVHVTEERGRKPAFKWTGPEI

Kd [1]: 7.96 µM | Kd [2]: 0.15 µM
SMILES: O=C(Nc1ccccc1C(=O)O)c1cccc(N2C(=O)c3ccc(C(=O)Nc4ccccc4C(=O)O)cc3C2=O)c1 [HIT-4]

Reference: article PMC12822184, “Targeting E2F8 sensitizes gemcitabine-resistant gallbladder cancer to PARP inhibitors by disrupting RRM2-driven DNA repair” (Journal of Experimental & Clinical Cancer Research : CR, 2025)
